From ChEMBL document CHEMBL3091280, “Synthesis and Cytotoxicity of Semisynthetic Withalongolide A Analogues” (ACS Med Chem Lett, 2013) come the findings set out here.

Molecules are shown by their SMILES.

A short description of assay [1]: Cytotoxicity against human DRO 81-1 cells after 72 hrs by MTS assay. It counts as functional, cell-based. In general terms: Formazan colour is commonly taken as a measure of viable cells.
Assay [2] concerns MRC5. Briefly: Cytotoxicity against human MRC5 cells after 72 hrs by MTS assay. It counts as cell-based. The settings on record: MRC5, 72 h.
In assay [3] the test system is SK-MEL-28. Kind of assay: Cytotoxicity against human SK-MEL-28 cells after 72 hrs by MTS assay. It counts as functional, cell-based. The following applies: SK-MEL-28, 72 h.
Assay [4] concerns MDA-MB-231. Kind of assay: Cytotoxicity against human MDA-MB-231 cells after 72 hrs by MTS assay. The following applies: MDA-MB-231, 72 h. It counts as functional, cell-based.
Assay [5] can be described thus: Cytotoxicity against human JMAR cells after 72 hrs by MTS assay. It counts as functional, cell-based.

In the case of `CC1=C(CO)C(=O)O[C@@H]([C@@H](C)[C@H]2CC[C@H]3[C@@H]4C[C@H]5O[C@]56[C@@H](O)C=CC(=O)[C@]6(C)[C@H]4CC[C@]23C)C1` [WITHAFERIN A], the concentration for half-maximal inhibition (IC50) in assay [1] was 0.78 µM; in assay [2] it was 2.7 µM; in assay [3], 1 µM; in assay [4], 0.54 µM; in assay [5] it was 1 µM.

As a reminder, the IC50 is the point on the concentration scale where inhibition reaches its midpoint.
